Source: PubChem BioAssay AID1919006 (Molecular Pharmacology Branch, DTP, NCI, 2023)

Tested on: 885512-296-R-J2-PDC complex spheroid growth, % test/control
Assay: Anticancer human tumor 885512-296-R-J2-PDC patient-derived breast carcinoma cell line growth inhibition [AhR]
Conditions: for IC50: curve of first compound; for viability, T/C: stronger effect = lower value
Method in brief: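 Spheroids combined tumor cells with HUVEC endothelial cells and human MSCs as stroma. AhR antagonists were paired with standard or investigational drugs, each dosed in half-log steps down from near clinical Cmax, or from 10 microM where Cmax was unknown.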

[1] = second compound 0.1 µM, first compound 0.000949 µM
[2] = second compound 0.1 µM, first compound 0.003 µM
[3] = second compound 0.1 µM, first compound 0.00949 µM
[4] = second compound 0.1 µM, first compound 0.03 µM
[5] = second compound 0.1 µM, first compound 0.0949 µM
[6] = second compound 0.1 µM, first compound 0.3 µM
[7] = second compound 0.316 µM, first compound 0.000949 µM
[8] = second compound 0.316 µM, first compound 0.003 µM
[9] = second compound 0.316 µM, first compound 0.00949 µM
[10] = second compound 0.316 µM, first compound 0.03 µM
[11] = second compound 0.316 µM, first compound 0.0949 µM
[12] = second compound 0.316 µM, first compound 0.3 µM
[13] = second compound 1 µM, first compound 0.000949 µM
[14] = second compound 1 µM, first compound 0.003 µM
[15] = second compound 1 µM, first compound 0.00949 µM
[16] = second compound 1 µM, first compound 0.03 µM
[17] = second compound 1 µM, first compound 0.0949 µM
[18] = second compound 1 µM, first compound 0.3 µM
[19] = second compound 3.16 µM, first compound 0.000949 µM
[20] = second compound 3.16 µM, first compound 0.003 µM
[21] = second compound 3.16 µM, first compound 0.00949 µM
[22] = second compound 3.16 µM, first compound 0.03 µM
[23] = second compound 3.16 µM, first compound 0.0949 µM
[24] = second compound 3.16 µM, first compound 0.3 µM
[25] = second compound 10 µM, first compound 0.000949 µM
[26] = second compound 10 µM, first compound 0.003 µM
[27] = second compound 10 µM, first compound 0.00949 µM
[28] = second compound 10 µM, first compound 0.03 µM
[29] = second compound 10 µM, first compound 0.0949 µM
[30] = second compound 10 µM, first compound 0.3 µM
[31] = second compound 0.1 µM, first compound 0.0316 µM
[32] = second compound 0.1 µM, first compound 0.1 µM
[33] = second compound 0.1 µM, first compound 0.316 µM
[34] = second compound 0.1 µM, first compound 1 µM
[35] = second compound 0.1 µM, first compound 3.16 µM
[36] = second compound 0.1 µM, first compound 10 µM
[37] = second compound 0.316 µM, first compound 0.0316 µM
[38] = second compound 0.316 µM, first compound 0.1 µM
[39] = second compound 0.316 µM, first compound 0.316 µM
[40] = second compound 0.316 µM, first compound 1 µM
[41] = second compound 0.316 µM, first compound 3.16 µM
[42] = second compound 0.316 µM, first compound 10 µM
[43] = second compound 1 µM, first compound 0.0316 µM
[44] = second compound 1 µM, first compound 0.1 µM
[45] = second compound 1 µM, first compound 0.316 µM
[46] = second compound 1 µM, first compound 1 µM
[47] = second compound 1 µM, first compound 3.16 µM
[48] = second compound 1 µM, first compound 10 µM
[49] = second compound 3.16 µM, first compound 0.0316 µM
[50] = second compound 3.16 µM, first compound 0.1 µM
[51] = second compound 3.16 µM, first compound 0.316 µM
[52] = second compound 3.16 µM, first compound 1 µM
[53] = second compound 3.16 µM, first compound 3.16 µM
[54] = second compound 3.16 µM, first compound 10 µM
[55] = second compound 10 µM, first compound 0.0316 µM
[56] = second compound 10 µM, first compound 0.1 µM
[57] = second compound 10 µM, first compound 0.316 µM
[58] = second compound 10 µM, first compound 1 µM
[59] = second compound 10 µM, first compound 3.16 µM
[60] = second compound 10 µM, first compound 10 µM
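Note: spheroids exposed to compounds for seven days.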

With CC(C)CC(NC(=O)C(Cc1ccccc1)NC(=O)c1cnccn1)B(O)O (stereo not given) + Cc1cncc(-c2nc(NCCc3c[nH]c4ccccc34)c3ncn(C(C)C)c3n2)c1 the IC50 (second compound 0.1 µM) was 6.75 nM, the IC50 (second compound 0.316 µM) was 6.48 nM and the IC50 (second compound 1 µM) was 5.6 nM. It also gave an IC50 (second compound 3.16 µM) of 3.63 nM, an IC50 (second compound 10 µM) of under 0.949 nM and a viability, T/C [1] of 112%. It also gave a viability, T/C [2] of 114%, a viability, T/C [3] of 23.6% and a viability, T/C [4] of 1.75%. It also gave a viability, T/C [5] of 0.64%, a viability, T/C [6] of 0.17% and a viability, T/C [7] of 103%. For the same compound, the viability, T/C [8] was 99%, the viability, T/C [9] was 25.7% and the viability, T/C [10] was 1.08%. It also gave a viability, T/C [11] of 0.32%, a viability, T/C [12] of 0.14% and a viability, T/C [13] of 79.2%. The viability, T/C [14] was 87.7%, the viability, T/C [15] was 21.8% and the viability, T/C [16] was 0.9%. The viability, T/C [17] was 0.08%, the viability, T/C [18] was 0.13% and the viability, T/C [19] was 52.5%. It also gave a viability, T/C [20] of 61%, a viability, T/C [21] of 16.3% and a viability, T/C [22] of 0.59%. For the same compound, the viability, T/C [23] was 0.07%, the viability, T/C [24] was 0.16% and the viability, T/C [25] was 16.7%. For the same compound, the viability, T/C [26] was 16.9%, the viability, T/C [27] was 1.8% and the viability, T/C [28] was 0.43%. For the same compound, the viability, T/C [29] was 0.16% and the viability, T/C [30] was 0.22%.
Work on CCc1c2c(nc3ccc(O)cc13)-c1cc3c(c(=O)n1C2)COC(=O)[C@]3(O)CC + Cc1cncc(-c2nc(NCCc3c[nH]c4ccccc34)c3ncn(C(C)C)c3n2)c1 yielded an IC50 (second compound 0.1 µM) of under 0.949 nM, an IC50 (second compound 0.316 µM) of under 0.949 nM and an IC50 (second compound 1 µM) of under 0.949 nM. For the same compound, the IC50 (second compound 3.16 µM) was under 0.949 nM, the IC50 (second compound 10 µM) was under 0.949 nM and the viability, T/C [1] was 17.1%. For the same compound, the viability, T/C [2] was 6.62%, the viability, T/C [3] was 6.47% and the viability, T/C [4] was 4.7%. The viability, T/C [5] was 3.05%, the viability, T/C [6] was 1.25% and the viability, T/C [7] was 13.4%. The viability, T/C [8] was 8.06%, the viability, T/C [9] was 6.14% and the viability, T/C [10] was 3.21%. The viability, T/C [11] was 2.78%, the viability, T/C [12] was 2.11% and the viability, T/C [13] was 13.7%. It also gave a viability, T/C [14] of 10.2%, a viability, T/C [15] of 6.69% and a viability, T/C [16] of 3.66%. For the same compound, the viability, T/C [17] was 3.03%, the viability, T/C [18] was 1.71% and the viability, T/C [19] was 14.3%. It also gave a viability, T/C [20] of 9.78%, a viability, T/C [21] of 8.43% and a viability, T/C [22] of 4.39%. It also gave a viability, T/C [23] of 2.48%, a viability, T/C [24] of 2.2% and a viability, T/C [25] of 15.4%. It also gave a viability, T/C [26] of 10.6%, a viability, T/C [27] of 5.11% and a viability, T/C [28] of 2.46%. For the same compound, the viability, T/C [29] was 1.12% and the viability, T/C [30] was 0.78%.
Nc1ccccc1NC(=O)c1ccc(CNC(=O)OCc2cccnc2)cc1 + Cc1cncc(-c2nc(NCCc3c[nH]c4ccccc34)c3ncn(C(C)C)c3n2)c1 was tested, and the IC50 (second compound 0.1 µM) was 1040 nM, the IC50 (second compound 0.316 µM) was 1120 nM and the IC50 (second compound 1 µM) was 1060 nM. For the same compound, the IC50 (second compound 3.16 µM) was 373 nM, the IC50 (second compound 10 µM) was under 31.6 nM and the viability, T/C [31] was 85.6%. For the same compound, the viability, T/C [32] was 102%, the viability, T/C [33] was 80.5% and the viability, T/C [34] was 47.3%. The viability, T/C [35] was 31.2%, the viability, T/C [36] was 12.6% and the viability, T/C [37] was 86.9%. For the same compound, the viability, T/C [38] was 94.4%, the viability, T/C [39] was 72% and the viability, T/C [40] was 49.4%. It also gave a viability, T/C [41] of 32.7%, a viability, T/C [42] of 12.2% and a viability, T/C [43] of 82.3%. It also gave a viability, T/C [44] of 78.7%, a viability, T/C [45] of 77.7% and a viability, T/C [46] of 48%. For the same compound, the viability, T/C [47] was 29.6%, the viability, T/C [48] was 15.2% and the viability, T/C [49] was 56.6%. It also gave a viability, T/C [50] of 61.3%, a viability, T/C [51] of 49.5% and a viability, T/C [52] of 40.4%. It also gave a viability, T/C [53] of 25.1%, a viability, T/C [54] of 15.2% and a viability, T/C [55] of 21.3%. For the same compound, the viability, T/C [56] was 19.4%, the viability, T/C [57] was 15.9% and the viability, T/C [58] was 11.6%. The viability, T/C [59] was 9.94% and the viability, T/C [60] was 9.37%.
O=C(c1cc(Cc2n[nH]c(=O)c3ccccc23)ccc1F)N1CCN(C(=O)C2CC2)CC1 + Cc1cncc(-c2nc(NCCc3c[nH]c4ccccc34)c3ncn(C(C)C)c3n2)c1 was tested, and the IC50 (second compound 0.1 µM) was 6620 nM, the IC50 (second compound 0.316 µM) was 7170 nM and the IC50 (second compound 1 µM) was 6440 nM. The IC50 (second compound 3.16 µM) was 3070 nM, the IC50 (second compound 10 µM) was under 31.6 nM and the viability, T/C [31] was 109%. For the same compound, the viability, T/C [32] was 102%, the viability, T/C [33] was 107% and the viability, T/C [34] was 112%. It also gave a viability, T/C [35] of 86.4%, a viability, T/C [36] of 29.7% and a viability, T/C [37] of 107%. It also gave a viability, T/C [38] of 98.4%, a viability, T/C [39] of 97.2% and a viability, T/C [40] of 109%. For the same compound, the viability, T/C [41] was 95%, the viability, T/C [42] was 31.3% and the viability, T/C [43] was 85.3%. It also gave a viability, T/C [44] of 82.7%, a viability, T/C [45] of 99.1% and a viability, T/C [46] of 87.2%. It also gave a viability, T/C [47] of 81.9%, a viability, T/C [48] of 30.3% and a viability, T/C [49] of 54.4%. The viability, T/C [50] was 60.1%, the viability, T/C [51] was 62.5% and the viability, T/C [52] was 60.1%. The viability, T/C [53] was 49.8%, the viability, T/C [54] was 24.6% and the viability, T/C [55] was 15.5%. It also gave a viability, T/C [56] of 19.7%, a viability, T/C [57] of 17.1% and a viability, T/C [58] of 17.1%. The viability, T/C [59] was 17.5% and the viability, T/C [60] was 15.2%.
